{
  "source": "paper PMC6886798",
  "about": "“Expression of myeloid Src-family kinases is associated with poor prognosis in AML and influences Flt3-ITD kinase inhibitor acquired resistance” (PLoS ONE, 2019)",
  "experiment_in_all_cases": "KINOMEscan",
  "assay_type_in_all_cases": "binding",
  "conditions_in_all_cases": "1.0 µM",
  "key": {"FGFR2": {"target": "T1, FGFR2 (Homo sapiens, UniProt P21802)", "T1 construct": "purchased Eurofins/DiscoverX KINOMEscan scanMAX", "experimental": "(§1) Kinase retention to the immobilized ligand is then measured using quantitative real-time PCR for each kinase-specific DNA barcode."}, "MYLK": {"target": "T2, MYLK (Homo sapiens, UniProt Q15746)", "T2 construct": "purchased Eurofins/DiscoverX KINOMEscan scanMAX", "experimental": "as §1"}, "[1]": {"target": "T3, RSK1(Kin.Dom.2-C-terminal) (Homo sapiens, UniProt Q15418)", "T3 construct": "RSK1(Kin.Dom.2-C-terminal); purchased Eurofins/DiscoverX KINOMEscan scanMAX", "experimental": "as §1"}, "SGK2": {"target": "T4, SGK2 (Homo sapiens, UniProt Q9HBY8)", "T4 construct": "purchased Eurofins/DiscoverX KINOMEscan scanMAX", "experimental": "as §1"}, "[2]": {"target": "T5, JAK2(JH1domain-catalytic) (Homo sapiens, UniProt O60674)", "T5 construct": "JAK2(JH1domain-catalytic); purchased Eurofins/DiscoverX KINOMEscan scanMAX", "experimental": "as §1"}, "TGFBR1": {"target": "T6, TGFBR1 (Homo sapiens, UniProt P36897)", "T6 construct": "purchased Eurofins/DiscoverX KINOMEscan scanMAX", "experimental": "as §1"}, "TBK1": {"target": "T7, TBK1 (Homo sapiens, UniProt Q9UHD2)", "T7 construct": "purchased Eurofins/DiscoverX KINOMEscan scanMAX", "experimental": "as §1"}, "MST4": {"target": "T8, MST4 (Homo sapiens, UniProt Q9P289)", "T8 construct": "purchased Eurofins/DiscoverX KINOMEscan scanMAX", "experimental": "as §1"}, "LZK": {"target": "T9, LZK (Homo sapiens, UniProt O43283)", "T9 construct": "purchased Eurofins/DiscoverX KINOMEscan scanMAX", "experimental": "as §1"}, "LRRK2(G2019S)": {"target": "T10, LRRK2(G2019S) (Homo sapiens, UniProt Q5S007, G2019S)", "T10 construct": "purchased Eurofins/DiscoverX KINOMEscan scanMAX", "experimental": "as §1"}, "[3]": {"target": "T11, TYK2(JH2domain-pseudokinase) (Homo sapiens, UniProt P29597)", "T11 construct": "TYK2(JH2domain-pseudokinase); DNA tag (qPCR barcode); purchased Eurofins/DiscoverX KINOMEscan scanMAX", "T11 sequence (P29597 589-875 limits assumed)": "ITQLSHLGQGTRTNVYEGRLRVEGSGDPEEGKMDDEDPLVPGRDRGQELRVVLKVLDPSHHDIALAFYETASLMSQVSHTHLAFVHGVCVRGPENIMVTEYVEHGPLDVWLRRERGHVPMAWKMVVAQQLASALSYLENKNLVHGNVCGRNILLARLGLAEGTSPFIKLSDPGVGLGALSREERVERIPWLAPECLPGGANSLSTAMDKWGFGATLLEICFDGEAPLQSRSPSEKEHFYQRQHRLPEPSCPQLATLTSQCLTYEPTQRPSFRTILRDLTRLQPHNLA", "experimental": "as §1"}, "FGFR1": {"target": "T12, FGFR1 (Homo sapiens, UniProt P11362)", "T12 construct": "purchased Eurofins/DiscoverX KINOMEscan scanMAX", "T12 sequence (P11362 22-822)": "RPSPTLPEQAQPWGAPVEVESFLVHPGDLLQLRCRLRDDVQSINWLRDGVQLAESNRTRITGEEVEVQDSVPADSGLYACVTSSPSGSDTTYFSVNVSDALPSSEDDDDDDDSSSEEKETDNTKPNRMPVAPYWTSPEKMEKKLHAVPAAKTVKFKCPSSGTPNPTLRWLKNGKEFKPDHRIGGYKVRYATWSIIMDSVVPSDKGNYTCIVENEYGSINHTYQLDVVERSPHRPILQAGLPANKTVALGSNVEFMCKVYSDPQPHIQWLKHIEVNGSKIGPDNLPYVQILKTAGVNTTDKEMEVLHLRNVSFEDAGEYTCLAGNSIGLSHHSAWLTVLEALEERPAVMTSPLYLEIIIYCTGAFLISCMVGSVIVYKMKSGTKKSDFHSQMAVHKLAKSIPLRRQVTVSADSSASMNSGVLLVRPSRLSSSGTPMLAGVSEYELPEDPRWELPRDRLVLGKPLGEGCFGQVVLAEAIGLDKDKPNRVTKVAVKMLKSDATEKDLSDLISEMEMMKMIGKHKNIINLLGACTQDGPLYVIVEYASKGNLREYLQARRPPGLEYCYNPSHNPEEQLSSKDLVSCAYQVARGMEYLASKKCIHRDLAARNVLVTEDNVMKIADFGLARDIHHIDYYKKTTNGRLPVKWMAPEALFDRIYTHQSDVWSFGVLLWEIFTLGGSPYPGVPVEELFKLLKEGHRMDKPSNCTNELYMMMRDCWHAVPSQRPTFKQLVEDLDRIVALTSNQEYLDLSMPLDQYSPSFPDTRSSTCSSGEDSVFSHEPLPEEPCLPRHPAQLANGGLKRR", "experimental": "as §1"}, "CHEK1": {"target": "T13, CHEK1 (Homo sapiens, UniProt O14757)", "T13 construct": "purchased Eurofins/DiscoverX KINOMEscan scanMAX", "experimental": "as §1"}, "KIT(D816V)": {"target": "T14, KIT(D816V) (Homo sapiens, UniProt P10721, D816V)", "T14 construct": "purchased Eurofins/DiscoverX KINOMEscan scanMAX", "experimental": "as §1"}, "PIK3CB": {"target": "T15, PIK3CB (Homo sapiens, UniProt P42338)", "T15 construct": "purchased Eurofins/DiscoverX KINOMEscan scanMAX", "experimental": "as §1"}, "IRAK1": {"target": "T16, IRAK1 (Homo sapiens, UniProt P51617)", "T16 construct": "purchased Eurofins/DiscoverX KINOMEscan scanMAX", "experimental": "as §1"}, "KIT(V559D,V654A)": {"target": "T17, KIT(V559D,V654A) (Homo sapiens, UniProt P10721, V559D/V654A)", "T17 construct": "purchased Eurofins/DiscoverX KINOMEscan scanMAX", "T17 sequence (P10721 26-976 V559D/V654A)": "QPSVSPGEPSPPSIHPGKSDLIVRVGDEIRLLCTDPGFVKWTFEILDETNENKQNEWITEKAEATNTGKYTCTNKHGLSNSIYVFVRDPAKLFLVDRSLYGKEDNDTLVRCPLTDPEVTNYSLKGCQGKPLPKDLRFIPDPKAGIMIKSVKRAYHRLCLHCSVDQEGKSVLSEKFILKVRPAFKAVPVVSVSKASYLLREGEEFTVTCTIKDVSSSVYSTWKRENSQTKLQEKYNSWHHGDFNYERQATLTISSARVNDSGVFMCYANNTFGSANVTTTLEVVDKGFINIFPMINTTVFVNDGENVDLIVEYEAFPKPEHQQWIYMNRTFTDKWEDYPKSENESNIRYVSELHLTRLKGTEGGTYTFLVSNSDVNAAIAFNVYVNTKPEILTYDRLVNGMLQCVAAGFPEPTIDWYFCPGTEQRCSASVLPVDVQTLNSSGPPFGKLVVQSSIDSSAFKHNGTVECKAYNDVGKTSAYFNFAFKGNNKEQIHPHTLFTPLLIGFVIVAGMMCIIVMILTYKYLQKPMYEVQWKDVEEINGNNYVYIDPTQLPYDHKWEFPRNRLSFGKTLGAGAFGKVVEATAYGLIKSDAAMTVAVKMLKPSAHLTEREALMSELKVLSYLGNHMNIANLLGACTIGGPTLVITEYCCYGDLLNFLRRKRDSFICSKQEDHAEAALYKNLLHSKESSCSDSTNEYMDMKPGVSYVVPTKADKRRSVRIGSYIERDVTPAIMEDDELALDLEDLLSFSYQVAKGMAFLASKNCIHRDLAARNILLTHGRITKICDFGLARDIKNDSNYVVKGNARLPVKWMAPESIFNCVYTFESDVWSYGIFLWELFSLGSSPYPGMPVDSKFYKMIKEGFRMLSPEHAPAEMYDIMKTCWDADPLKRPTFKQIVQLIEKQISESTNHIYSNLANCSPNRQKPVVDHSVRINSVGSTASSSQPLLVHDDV", "experimental": "as §1"}, "PIK3CG": {"target": "T18, PIK3CG (Homo sapiens, UniProt P48736)", "T18 construct": "purchased Eurofins/DiscoverX KINOMEscan scanMAX", "experimental": "as §1"}, "CSK": {"target": "T19, CSK (Homo sapiens, UniProt P41240)", "T19 construct": "purchased Eurofins/DiscoverX KINOMEscan scanMAX", "experimental": "as §1"}, "SNARK": {"target": "T20, SNARK (Homo sapiens, UniProt Q9H093)", "T20 construct": "purchased Eurofins/DiscoverX KINOMEscan scanMAX", "experimental": "as §1"}, "DDR2": {"target": "T21, DDR2 (Homo sapiens, UniProt Q16832)", "T21 construct": "purchased Eurofins/DiscoverX KINOMEscan scanMAX", "experimental": "as §1"}, "IKK-epsilon": {"target": "T22, IKK-epsilon (Homo sapiens, UniProt Q14164)", "T22 construct": "purchased Eurofins/DiscoverX KINOMEscan scanMAX", "experimental": "as §1"}, "EPHB3": {"target": "T23, EPHB3 (Homo sapiens, UniProt P54753)", "T23 construct": "purchased Eurofins/DiscoverX KINOMEscan scanMAX", "T23 sequence (P54753 34-998)": "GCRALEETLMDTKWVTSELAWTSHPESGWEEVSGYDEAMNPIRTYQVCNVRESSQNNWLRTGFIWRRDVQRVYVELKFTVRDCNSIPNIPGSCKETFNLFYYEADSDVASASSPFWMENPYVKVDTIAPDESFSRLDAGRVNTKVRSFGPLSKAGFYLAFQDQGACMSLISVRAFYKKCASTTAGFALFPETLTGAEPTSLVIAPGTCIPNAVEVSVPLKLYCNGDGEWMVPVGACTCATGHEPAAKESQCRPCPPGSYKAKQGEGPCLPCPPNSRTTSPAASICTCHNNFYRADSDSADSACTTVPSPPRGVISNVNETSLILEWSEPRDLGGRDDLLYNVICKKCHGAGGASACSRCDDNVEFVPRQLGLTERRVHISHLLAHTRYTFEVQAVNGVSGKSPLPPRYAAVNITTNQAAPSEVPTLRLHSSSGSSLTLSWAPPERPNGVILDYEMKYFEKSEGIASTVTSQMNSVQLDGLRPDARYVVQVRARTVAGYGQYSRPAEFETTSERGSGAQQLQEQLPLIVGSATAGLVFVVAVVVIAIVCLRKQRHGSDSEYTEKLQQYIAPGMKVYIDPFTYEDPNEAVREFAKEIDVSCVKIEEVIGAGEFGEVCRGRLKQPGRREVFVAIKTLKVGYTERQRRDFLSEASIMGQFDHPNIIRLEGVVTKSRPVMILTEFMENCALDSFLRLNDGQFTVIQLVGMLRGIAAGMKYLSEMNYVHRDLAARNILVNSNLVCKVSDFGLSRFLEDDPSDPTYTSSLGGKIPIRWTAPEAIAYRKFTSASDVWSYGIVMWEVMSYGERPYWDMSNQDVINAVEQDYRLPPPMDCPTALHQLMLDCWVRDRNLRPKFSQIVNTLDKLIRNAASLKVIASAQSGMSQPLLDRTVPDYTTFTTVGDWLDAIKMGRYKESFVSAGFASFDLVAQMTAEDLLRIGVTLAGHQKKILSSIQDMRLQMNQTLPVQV", "experimental": "as §1"}, "AURKA": {"target": "T24, AURKA (Homo sapiens, UniProt O14965)", "T24 construct": "purchased Eurofins/DiscoverX KINOMEscan scanMAX", "experimental": "as §1"}, "CDK4-cyclinD3": {"target": "T25, CDK4-cyclinD3 (Homo sapiens, UniProt P11802)", "T25 construct": "purchased Eurofins/DiscoverX KINOMEscan scanMAX", "experimental": "as §1"}, "FLT3(D835Y)": {"target": "T26, FLT3(D835Y) (Homo sapiens, UniProt P36888, D835Y)", "T26 construct": "purchased Eurofins/DiscoverX KINOMEscan scanMAX", "experimental": "as §1"}, "PIK3CA(E545A)": {"target": "T27, PIK3CA(E545A) (Homo sapiens, UniProt P42336, E545A)", "T27 construct": "purchased Eurofins/DiscoverX KINOMEscan scanMAX", "experimental": "as §1"}, "ERBB4": {"target": "T28, ERBB4 (Homo sapiens, UniProt Q15303)", "T28 construct": "purchased Eurofins/DiscoverX KINOMEscan scanMAX", "experimental": "as §1"}, "ABL1-phosphorylated": {"target": "T29, ABL1-phosphorylated (Homo sapiens, UniProt P00519)", "T29 construct": "purchased Eurofins/DiscoverX KINOMEscan scanMAX", "experimental": "as §1"}, "EPHB1": {"target": "T30, EPHB1 (Homo sapiens, UniProt P54762)", "T30 construct": "purchased Eurofins/DiscoverX KINOMEscan scanMAX", "experimental": "as §1"}, "HIPK3": {"target": "T31, HIPK3 (Homo sapiens, UniProt Q9H422)", "T31 construct": "purchased Eurofins/DiscoverX KINOMEscan scanMAX", "experimental": "as §1"}, "CAMK1D": {"target": "T32, CAMK1D (Homo sapiens, UniProt Q8IU85)", "T32 construct": "purchased Eurofins/DiscoverX KINOMEscan scanMAX", "experimental": "as §1"}, "ALK(C1156Y)": {"target": "T33, ALK(C1156Y) (Homo sapiens, UniProt Q9UM73, C1156Y)", "T33 construct": "purchased Eurofins/DiscoverX KINOMEscan scanMAX", "T33 sequence (Q9UM73 19-1620 C1156Y)": "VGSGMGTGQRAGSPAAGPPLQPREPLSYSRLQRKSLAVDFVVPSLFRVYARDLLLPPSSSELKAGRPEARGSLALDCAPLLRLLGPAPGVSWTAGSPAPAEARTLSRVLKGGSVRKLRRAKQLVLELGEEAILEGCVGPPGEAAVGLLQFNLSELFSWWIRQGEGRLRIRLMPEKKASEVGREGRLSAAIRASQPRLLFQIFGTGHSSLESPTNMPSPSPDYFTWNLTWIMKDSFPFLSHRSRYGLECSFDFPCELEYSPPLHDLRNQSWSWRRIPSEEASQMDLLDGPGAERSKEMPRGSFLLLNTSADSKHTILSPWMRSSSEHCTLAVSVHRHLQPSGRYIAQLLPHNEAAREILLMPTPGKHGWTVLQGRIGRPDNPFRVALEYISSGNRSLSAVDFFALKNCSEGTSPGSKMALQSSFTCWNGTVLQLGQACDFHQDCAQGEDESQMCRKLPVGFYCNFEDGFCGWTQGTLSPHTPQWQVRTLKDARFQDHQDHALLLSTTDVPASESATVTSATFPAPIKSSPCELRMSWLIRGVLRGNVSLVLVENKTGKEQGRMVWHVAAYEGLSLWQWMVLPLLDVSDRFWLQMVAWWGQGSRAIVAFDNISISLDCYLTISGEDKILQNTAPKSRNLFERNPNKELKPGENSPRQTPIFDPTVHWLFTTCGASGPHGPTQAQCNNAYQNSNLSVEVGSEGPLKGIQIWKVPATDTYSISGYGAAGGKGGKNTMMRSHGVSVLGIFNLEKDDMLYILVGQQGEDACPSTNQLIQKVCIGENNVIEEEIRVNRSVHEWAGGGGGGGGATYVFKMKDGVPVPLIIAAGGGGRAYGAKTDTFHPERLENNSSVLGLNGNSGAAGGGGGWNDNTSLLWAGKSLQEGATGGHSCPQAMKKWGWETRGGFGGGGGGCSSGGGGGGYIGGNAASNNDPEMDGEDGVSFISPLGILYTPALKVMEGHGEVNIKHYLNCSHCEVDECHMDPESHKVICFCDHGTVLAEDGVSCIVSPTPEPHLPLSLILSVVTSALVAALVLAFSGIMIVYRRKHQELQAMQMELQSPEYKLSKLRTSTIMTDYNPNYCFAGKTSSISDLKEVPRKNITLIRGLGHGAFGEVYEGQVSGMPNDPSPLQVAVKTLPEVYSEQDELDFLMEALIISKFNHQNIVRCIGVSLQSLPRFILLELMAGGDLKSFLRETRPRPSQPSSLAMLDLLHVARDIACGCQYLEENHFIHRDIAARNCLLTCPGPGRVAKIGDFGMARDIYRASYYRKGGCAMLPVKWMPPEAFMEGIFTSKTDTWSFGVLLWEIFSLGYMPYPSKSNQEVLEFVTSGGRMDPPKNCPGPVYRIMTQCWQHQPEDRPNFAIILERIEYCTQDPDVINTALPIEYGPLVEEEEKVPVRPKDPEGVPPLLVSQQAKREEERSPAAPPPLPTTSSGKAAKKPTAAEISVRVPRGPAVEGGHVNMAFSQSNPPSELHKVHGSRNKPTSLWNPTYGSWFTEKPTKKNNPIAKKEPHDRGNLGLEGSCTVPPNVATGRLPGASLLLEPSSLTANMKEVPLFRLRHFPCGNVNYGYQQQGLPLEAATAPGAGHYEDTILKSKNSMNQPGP", "experimental": "as §1"}, "MKNK2": {"target": "T34, MKNK2 (Homo sapiens, UniProt Q9HBH9)", "T34 construct": "purchased Eurofins/DiscoverX KINOMEscan scanMAX", "T34 sequence (Q9HBH9 whole entry)": "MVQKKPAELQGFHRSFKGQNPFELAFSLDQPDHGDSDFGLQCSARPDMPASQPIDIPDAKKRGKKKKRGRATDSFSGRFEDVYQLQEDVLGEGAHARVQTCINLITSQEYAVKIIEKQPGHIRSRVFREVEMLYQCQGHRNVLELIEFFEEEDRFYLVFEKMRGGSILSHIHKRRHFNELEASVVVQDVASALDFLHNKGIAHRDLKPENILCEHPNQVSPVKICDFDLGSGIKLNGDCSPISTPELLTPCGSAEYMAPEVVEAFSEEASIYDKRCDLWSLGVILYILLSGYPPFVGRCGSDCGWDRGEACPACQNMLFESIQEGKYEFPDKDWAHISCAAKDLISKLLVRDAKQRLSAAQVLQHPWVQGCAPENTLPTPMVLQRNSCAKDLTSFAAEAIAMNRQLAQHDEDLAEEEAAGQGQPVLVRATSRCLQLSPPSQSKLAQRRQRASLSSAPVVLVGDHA", "experimental": "as §1"}, "HIPK2": {"target": "T35, HIPK2 (Homo sapiens, UniProt Q9H2X6)", "T35 construct": "purchased Eurofins/DiscoverX KINOMEscan scanMAX", "experimental": "as §1"}, "MTOR": {"target": "T36, MTOR (Homo sapiens, UniProt P42345)", "T36 construct": "purchased Eurofins/DiscoverX KINOMEscan scanMAX", "experimental": "as §1"}, "CDK4": {"target": "T37, CDK4 (Homo sapiens, UniProt P11802)", "T37 construct": "purchased Eurofins/DiscoverX KINOMEscan scanMAX", "experimental": "as §1"}, "SRPK3": {"target": "T38, SRPK3 (Homo sapiens, UniProt Q9UPE1)", "T38 construct": "purchased Eurofins/DiscoverX KINOMEscan scanMAX", "experimental": "as §1"}, "[4]": {"target": "T39, JAK1(JH1domain-catalytic) (Homo sapiens, UniProt P23458)", "T39 construct": "JAK1(JH1domain-catalytic); purchased Eurofins/DiscoverX KINOMEscan scanMAX", "experimental": "as §1"}, "AKT3": {"target": "T40, AKT3 (Homo sapiens, UniProt Q9Y243)", "T40 construct": "purchased Eurofins/DiscoverX KINOMEscan scanMAX", "experimental": "as §1"}},
  "data": [
    {"smiles": "CN1CCN(C2CCC(n3cc(-c4ccc(Oc5ccccc5)cc4)c4c(N)ncnc43)CC2)CC1", "note": "(stereo not shown) [A-419259]", "values": [
      {"measurement": "% Control", "setting": "FGFR2", "result": 39, "unit": "%"},
      {"measurement": "% Control", "setting": "MYLK", "result": 94, "unit": "%"},
      {"measurement": "% Control", "setting": "[1]", "result": 84, "unit": "%"},
      {"measurement": "% Control", "setting": "SGK2", "result": 90, "unit": "%"},
      {"measurement": "% Control", "setting": "[2]", "result": 100, "unit": "%"},
      {"measurement": "% Control", "setting": "TGFBR1", "result": 60, "unit": "%"},
      {"measurement": "% Control", "setting": "TBK1", "result": 100, "unit": "%"},
      {"measurement": "% Control", "setting": "MST4", "result": 4.9, "unit": "%"},
      {"measurement": "% Control", "setting": "LZK", "result": 85, "unit": "%"},
      {"measurement": "% Control", "setting": "LRRK2(G2019S)", "result": 100, "unit": "%"},
      {"measurement": "% Control", "setting": "[3]", "result": 95, "unit": "%"},
      {"measurement": "% Control", "setting": "FGFR1", "result": 1.6, "unit": "%"},
      {"measurement": "% Control", "setting": "CHEK1", "result": 54, "unit": "%"},
      {"measurement": "% Control", "setting": "KIT(D816V)", "result": 70, "unit": "%"},
      {"measurement": "% Control", "setting": "PIK3CB", "result": 64, "unit": "%"},
      {"measurement": "% Control", "setting": "IRAK1", "result": 98, "unit": "%"},
      {"measurement": "% Control", "setting": "KIT(V559D,V654A)", "result": 18, "unit": "%"},
      {"measurement": "% Control", "setting": "PIK3CG", "result": 61, "unit": "%"},
      {"measurement": "% Control", "setting": "CSK", "result": 2.1, "unit": "%"},
      {"measurement": "% Control", "setting": "SNARK", "result": 26, "unit": "%"},
      {"measurement": "% Control", "setting": "DDR2", "result": 59, "unit": "%"},
      {"measurement": "% Control", "setting": "IKK-epsilon", "result": 100, "unit": "%"},
      {"measurement": "% Control", "setting": "EPHB3", "result": 100, "unit": "%"},
      {"measurement": "% Control", "setting": "AURKA", "result": 36, "unit": "%"},
      {"measurement": "% Control", "setting": "CDK4-cyclinD3", "result": 81, "unit": "%"},
      {"measurement": "% Control", "setting": "FLT3(D835Y)", "result": 7.6, "unit": "%"},
      {"measurement": "% Control", "setting": "PIK3CA(E545A)", "result": 100, "unit": "%"},
      {"measurement": "% Control", "setting": "ERBB4", "result": 0, "unit": "%"},
      {"measurement": "% Control", "setting": "ABL1-phosphorylated", "result": 0.25, "unit": "%"},
      {"measurement": "% Control", "setting": "EPHB1", "result": 96, "unit": "%"},
      {"measurement": "% Control", "setting": "HIPK3", "result": 91, "unit": "%"},
      {"measurement": "% Control", "setting": "CAMK1D", "result": 97, "unit": "%"},
      {"measurement": "% Control", "setting": "ALK(C1156Y)", "result": 21, "unit": "%"},
      {"measurement": "% Control", "setting": "MKNK2", "result": 8.3, "unit": "%"},
      {"measurement": "% Control", "setting": "HIPK2", "result": 100, "unit": "%"},
      {"measurement": "% Control", "setting": "MTOR", "result": 90, "unit": "%"},
      {"measurement": "% Control", "setting": "CDK4", "result": 91, "unit": "%"},
      {"measurement": "% Control", "setting": "SRPK3", "result": 99, "unit": "%"},
      {"measurement": "% Control", "setting": "[4]", "result": 99, "unit": "%"},
      {"measurement": "% Control", "setting": "AKT3", "result": 100, "unit": "%"}
    ]}
  ]
}
